What was measured:
[1] = Adverse events (CTCAE v5.0), safety analysis set
Experimental: Adverse events were recorded continuously until 30 (± 7) days after discontinuation of study treatment and graded using the National Cancer Institute Common Terminology Criteria for Adverse Events v5.0.

[2] = human, in vivo, po, 480 mg
Text: After completion of Part A, patients continued to Part B of the study. […] Treatment with paclitaxel continued for at least six cycles unless the patient experienced unacceptable paclitaxel-related toxicity or disease progression.
For patients with dose interruption in Cycle 2 before Week 2 Day 5, sample collection could be postponed to Week 2 Day 5 of the subsequent or later cycle, providing there was no dose interruption before Week 2 Day 5 of that cycle.

[3] = cited from earlier work
[4] = related to capivasertib only per investigator, N = 16
[5] = oral administration, Western and Japanese patients

CC(=O)O[C@H]1C(=O)[C@@]2(C)[C@H]([C@H](OC(=O)c3ccccc3)[C@]3(O)C[C@H](OC(=O)[C@H](O)[C@@H](NC(=O)c4ccccc4)c4ccccc4)C(C)=C1C3(C)C)[C@]1(OC(C)=O)CO[C@@H]1C[C@@H]2O [paclitaxel]
75.0%: patients with adverse events leading to dose interruptions of paclitaxel ([1]; human, in vivo)
31.3%: patients with adverse events leading to dose reductions of paclitaxel ([1]; human, in vivo)

NC1(C(=O)N[C@@H](CCO)c2ccc(Cl)cc2)CCN(c2nc[nH]c3nccc2-3)CC1 [Capivasertib, capivasertib]
approximately 10 h: terminal elimination half-life (t½λz) [3, 5]
11 (68.8) n (%): Diarrhoea, any grade [1, 4]
1.0 h: tmax, median (range) [2]
approximately dose-proportional: dose proportionality of plasma exposure (AUC over the dosing interval and Cmax) ([3]; doses ranging from 80 mg to 800 mg)
1 to 2 h: median tmax [3, 5]
2 (12.5) n (%): Blood bilirubin increased, any grade [1, 4] | Blood creatinine increased, any grade [1, 4] | Hyperglycaemia, Grade ≥3 [1, 4] | Nausea, any grade [1, 4] | White blood cell count decreased, any grade [1, 4]
4 (25.0) n (%): Anaemia, any grade [1, 4] | Hypoalbuminaemia, any grade [1, 4] | Hypomagnesaemia, any grade [1, 4]
64.9 L/h: CL/F, gMean gCV % [2]
7244 58.8 h×ng/mL: AUC(0–48), gMean gCV % [2]
5 (31.3) n (%): Hyponatraemia, any grade [1, 4] | Proteinuria, any grade [1, 4] | Rash (group term), Grade ≥3 [1, 4]
87.5%: patients with adverse events leading to dose interruptions of capivasertib ([1]; N = 16)
5630 62.2 h×ng/mL: AUC(0–12), gMean gCV % [2]
6 (37.5) n (%): Pyrexia, any grade [1, 4]
10 (62.5) n (%): Rash (group term), any grade [1, 4]
9 (56.3) n (%): Any adverse event, Grade ≥3 [1, 4]
1 (6.3) n (%): Aspartate aminotransferase increased, any grade [1, 4] | Blood albumin decreased, any grade [1, 4] | Blood uric acid increased, any grade [1, 4] | Hypocalcaemia, any grade [1, 4] | Hypokalaemia, any grade [1, 4] | Neutrophil count decreased, any grade [1, 4] | Oedema peripheral, any grade [1, 4] | Platelet count decreased, any grade [1, 4] | Stomatitis, any grade [1, 4] | Vomiting, any grade [1, 4] | White blood cell count decreased, Grade ≥3 [1, 4]
31.3%: patients with adverse events leading to dose reductions of capivasertib ([1]; N = 16)
16 (100.0) n (%): Any adverse event, any grade [1, 4]
7397 58.7 h×ng/mL: AUCinf, gMean gCV % [2]
0 n (%): Anaemia, Grade ≥3 [1, 4] | Aspartate aminotransferase increased, Grade ≥3 [1, 4] | Blood albumin decreased, Grade ≥3 [1, 4] | Blood bilirubin increased, Grade ≥3 [1, 4] | Blood creatinine increased, Grade ≥3 [1, 4] | Blood triglycerides increased, Grade ≥3 [1, 4] | Blood triglycerides increased, any grade [1, 4] | Blood uric acid increased, Grade ≥3 [1, 4] | Diarrhoea, Grade ≥3 [1, 4] | Glycosylated haemoglobin increased, Grade ≥3 [1, 4] | Glycosylated haemoglobin increased, any grade [1, 4] | Hypoalbuminaemia, Grade ≥3 [1, 4] | Hypocalcaemia, Grade ≥3 [1, 4] | Hypokalaemia, Grade ≥3 [1, 4] | Hypomagnesaemia, Grade ≥3 [1, 4] | Hyponatraemia, Grade ≥3 [1, 4] | Hypophosphataemia, Grade ≥3 [1, 4] | Hypophosphataemia, any grade [1, 4] | Nausea, Grade ≥3 [1, 4] | Neutrophil count decreased, Grade ≥3 [1, 4] | Oedema peripheral, Grade ≥3 [1, 4] | Peripheral sensory neuropathy, Grade ≥3 [1, 4] | Peripheral sensory neuropathy, any grade [1, 4] | Platelet count decreased, Grade ≥3 [1, 4] | Proteinuria, Grade ≥3 [1, 4] | Pyrexia, Grade ≥3 [1, 4] | Stomatitis, Grade ≥3 [1, 4] | Vomiting, Grade ≥3 [1, 4] | Weight decreased, Grade ≥3 [1, 4] | Weight decreased, any grade [1, 4]
15 (93.8) n (%): Hyperglycaemia, any grade [1, 4]

— publication PMC12519771 (BMC Cancer, 2025)
